Results published in patent US10746637B2, “Aldehyde scavenging agent for retrieving elements from fixed tissue” (University of Houston System, priority 2013, dated 2020).
Like-named read-outs stand apart in the source and are kept apart here.

How the values were obtained:
[1] = test system: Collagen IV; test: Immunohistochemical staining of Collagen IV on formalin fixed paraffin embedded mouse brain sections after antigen retrieval with formaldehyde scavengers and enhancer; parameters: key: − being non-reactive; Immunoreactivity was scored on a scale of − to +++; Immunoreactivity was scored on a scale of − to +++; +++ being highly reactive; details: 45 minutes at 95° C.
Experimental: 12-month-old C57Bl6J mice were housed under controlled environment conditions on a condition al 12 hour light dark cycle. Following sacrifice, brains were post-fixed in 4% paraformaldehyde for 72 hours at […] and then transferred to 70% ethanol solution where they were stored at 4° C. Tissue was paraffin-processed using convention dehydration and embedding, and then sectioned at 5 μm intervals.
Tissues were deparaffinized and rehydrated. Slides were placed in a plastic Coplin jar containing either distilled water or a combination of formaldehyde scavengers in combination with an enhancer. Jars were covered with a loose fitting screw cap and heated in a pressure cooker for 45 minutes at 95° C. After heating, the Coplin jars were removed and allowed to cool and rinsed in TBST for five minutes.
Immunohistochemical staining was performed using a three-step immunostaining technique using the ABC method. Briefly, all incubations were performed as follows: 1) primary antibodies were incubated overnight at 4° C., 2) secondary antibodies were incubated for 10 minutes at room temperature, 3) streptavidin-conjugated enzyme was incubated for 10 minutes at room temperature, 4) peroxidase substrate was incubated for 1 minute.

[2] = test system: Angiotensin I; test: Mass spectrometry of formalin treated Angiotensin I after heating with aldehyde scavenging compounds; details: 5% compound, 95° C., 45 minutes
Experimental: Angiotensin I is treated with formalin at room temperature for 48 hours. […] Mass-spectrometry is used to analyze the compositions of the Angiotensin I before and after treatment by each compound. Samples of Angiotensin I before (FIG. 11A) and after (FIG. 11B) formalin treatments are used as the controls for the experiment. Peaks at m/z 1296 represent unmodified Angiotensin I. Peaks at m/z 1308 represent Angiotensin I with 1 methylene unit. Peaks at m/z 1320 represent Angiotensin I with 2 methylene units. Peaks at m/z 1338 represent Angiotensin I with 1 methylene unit and 1 hydroxymethylene group. Peaks at m/z 1350 represent Angiotensin I with 2 methylene units and 1 hydroxymethylene group.

[3] = test system: RNA; test: Recovery of RNA from formalin-fixed paraffin-embedded tissue samples (FIG. 30)
[4] = test system: collagen IV
[5] = test system: GFAP; test: Microscope images of GFAP immunostaining after antigen retrieval (FIGS. 15-18)
[6] = test system: Collagen IV; test: Immunohistochemical staining of Collagen IV after antigen retrieval with 0.05% maleic acid and cooling in a second solution; parameters: species or system mouse; key to Result (immunoreactivity, Collagen IV staining): − being non-reactive; Immunoreactivity was scored on a scale of − to +++; Immunoreactivity was scored on a scale of − to +++; +++ being highly reactive; details: for immunostaining of Collagen IV after antigen retrieval with maleic acid and cooling to room temperature: FIGS. 31A-31C, compared to dH2O; for Result (immunoreactivity, Collagen IV staining): Table 9, retrieval with 0.05% maleic acid 45 minutes at 95° C., then cooling to room temperature in the named solution (10% guanidine or 2,2,2-trifluoroethanol in water)
Experimental: 12-month-old […] mice were housed under controlled environment conditions on a condition al 12 hour light dark cycle. Following sacrifice, brains were post-fixed in 4% paraformaldehyde for 72 hours at 4° C. and then transferred to 70% ethanol solution where they were stored at 4° C. Tissue was paraffin-processed using convention dehydration and embedding, and then sectioned at 5 μm intervals. Tissues were deparaffinized and rehydrated. […] Jars were covered with a loose fitting screw cap and heated in a pressure cooker for 45 minutes at 95° C. After heating, the Coplin jars were removed and slides were allowed to cool to room temperature in either 10% guanidine or 2,2,2-trifluoroethanol in water and rinsed in TBST for five minutes. Immunohistochemical staining was performed using a three-step immunostaining technique using the ABC method. Briefly, all incubations were performed as follows: 1) primary antibodies were incubated overnight at 4° C., 2) secondary antibodies were incubated for 10 minutes at room temperature, 3) streptavidin-conjugated enzyme was incubated for 10 minutes at room temperature, 4) peroxidase substrate was incubated for 1 minute.

[7] = test system: blood vessels; test: Antigen retrieval in paraformaldehyde fixed vascular tissue, visualization of blood vessels; details: paraformaldehyde fixed tissue heated in solution of compound (FIGS. 4A-4E)
Excerpt: Paraformaldehyde fixed tissue samples are heated in solutions of compounds prepared as described in Example 1 and the blood vessels in the tissue are visualized.

[8] = compared to control buffer (FIG. 30)
[9] = microscope images, figure legends
[10] = Table 2, aniline compounds, FFPE mouse brain sections

Compound: NO [1% Hydroxylamine, Hydroxylamine]
- Result (immunoreactivity, Collagen IV staining) ([1]; Table 3, 1% hydroxylamine alone or with 4-aminophenol, concentrations in label): +
- Result (immunoreactivity, Collagen IV staining) ([1]; Table 4, 1% hydroxylamine alone or with aniline, concentrations in label): +
- Result (immunoreactivity, Collagen IV staining) ([1]; Table 5, 0.5% hydroxylamine alone or with aniline, concentrations in label): +
- retrieval of formalin adducts of Angiotensin I [2]: significant retrieval of formalin adducts
- recovery of RNA from formalin-fixed paraffin-embedded tissue samples [3, 8]: enhanced recovery of RNA
- immunostaining of Collagen IV after antigen retrieval [4, 9]: enhanced immunostaining

Compound: NOCc1ccccc1 [1% O-Benzylhydroxylamine, O-Benzylhydroxylamine]
- Result (immunoreactivity, Collagen IV staining) ([1]; Table 6, 1% O-benzylhydroxylamine alone or with aniline, concentrations in label): +
- Result (immunoreactivity, Collagen IV staining) ([1]; Table 7, 0.5% O-benzylhydroxylamine alone or with aniline, concentrations in label): +
- recovery of RNA from formalin-fixed paraffin-embedded tissue samples [3, 8]: enhanced recovery of RNA
- immunostaining of Collagen IV after antigen retrieval [4, 9]: enhanced immunostaining

Compound: Sc1nc(S)nc(S)n1 [1,3,5-triazine-2,4,6-trithiol]
- immunostaining of GFAP after antigen retrieval [5, 9]: enhanced immunostaining

Compound: CCCC(N)O (stereo not drawn) [1-amino-1-butanol]
- immunostaining of Collagen IV after antigen retrieval [4, 9]: enhanced immunostaining

Compound: OCC(F)(F)F [2,2,2-Trifluoroethanol]
- immunostaining of Collagen IV after antigen retrieval with maleic acid and cooling to room temperature [6]: enhanced immunostaining
- Result (immunoreactivity, Collagen IV staining) [6]: ++

Compound: CC1=C(C)C(=O)OC1=O [2,3-dimethylmaleic anhydride]
- antigen retrieval with visualization of the blood vessels [7]: successful antigen retrieval

Compound: COc1ccc(N)c(C(=O)O)c1 [2-Amino-5-methoxybenzoic acid]
- Result (immunoreactivity, Collagen IV staining) [1, 10]: −
- recovery of RNA from formalin-fixed paraffin-embedded tissue samples [3, 8]: enhanced recovery of RNA

Compound: CC(N)(CO)CO [2-amino-2-methyl-1,3-propanediol]
- immunostaining of Collagen IV after antigen retrieval [4, 9]: enhanced immunostaining

Compound: O=C1CCCN1 [2-pyrrolidinone]
- immunostaining of Collagen IV after antigen retrieval [4, 9]: enhanced immunostaining

Compound: Nc1ccc(O)cc1 [4-Aminophenol]
- Result (immunoreactivity, Collagen IV staining) [1, 10]: ++
- recovery of RNA from formalin-fixed paraffin-embedded tissue samples [3, 8]: enhanced recovery of RNA
- immunostaining of Collagen IV after antigen retrieval [4, 9]: enhanced immunostaining

Compound: CCOc1ccc(N)cc1 [4-Ethoxyaniline]
- Result (immunoreactivity, Collagen IV staining) [1, 10]: +
- immunostaining of Collagen IV after antigen retrieval [4]: enhanced immunostaining

Compound: Nc1ccccc1 [Aniline]
- Result (immunoreactivity, Collagen IV staining) [1, 10]: ++
- recovery of RNA from formalin-fixed paraffin-embedded tissue samples [3, 8]: enhanced recovery of RNA
- immunostaining of Collagen IV after antigen retrieval [4, 9]: enhanced immunostaining

Compound: N=C(N)N [Guanidine]
- immunostaining of Collagen IV after antigen retrieval with maleic acid and cooling to room temperature [6]: enhanced immunostaining
- Result (immunoreactivity, Collagen IV staining) [6]: ++
- amount of Angiotensin I with 2 methylene units (m/z 1320) [2]: does not exhibit any impact
- content of Angiotensin I with 1 methylene unit and 1 hydroxymethylene group (m/z 1338) [2]: minimal ability to retrieve
- immunostaining of Collagen IV after antigen retrieval [4, 9]: enhanced immunostaining

Compound: NC(=O)C[C@H](N)C(=O)O [L-asparagine]
- immunostaining of Collagen IV after antigen retrieval [4, 9]: enhanced immunostaining

Compound: NOCC(=O)O [O-(carboxymethyl)hydroxylamine]
- recovery of RNA from formalin-fixed paraffin-embedded tissue samples [3, 8]: enhanced recovery of RNA
- immunostaining of Collagen IV after antigen retrieval [4, 9]: enhanced immunostaining

Compound: CCON [O-ethylhydroxylamine]
- recovery of RNA from formalin-fixed paraffin-embedded tissue samples [3, 8]: enhanced recovery of RNA
- immunostaining of Collagen IV after antigen retrieval [4, 9]: enhanced immunostaining

Compound: Nc1ccc(S(=O)(=O)O)cc1 [Sulfanilic acid]
- Result (immunoreactivity, Collagen IV staining) [1, 10]: ++
- recovery of RNA from formalin-fixed paraffin-embedded tissue samples [3, 8]: enhanced recovery of RNA
- immunostaining of Collagen IV after antigen retrieval [4, 9]: enhanced immunostaining

Compound: CC(=O)CC(N)=O [acetoacetamide]
- immunostaining of Collagen IV after antigen retrieval [4, 9]: enhanced immunostaining

Compound: O=C1CC(=O)NC(=O)N1 [barbituric acid]
- immunostaining of Collagen IV after antigen retrieval [4]: enhanced immunostaining

Compound: O=C(O)CC(O)(CC(=O)O)C(=O)O [citric acid, reference compound]
- amount of Angiotensin I with 2 methylene units (m/z 1320) [2]: significantly reduce
- content of Angiotensin I with 1 methylene unit and 1 hydroxymethylene group (m/z 1338) [2]: significantly reduce
- retrieval of formalin adducts of Angiotensin I [2]: significant retrieval of formalin adducts

Compound: NCCS [cysteamine]
- immunostaining of GFAP after antigen retrieval [5, 9]: enhanced immunostaining

Compound: N[C@@H](CS)C(=O)O [cysteine]
- retrieval of formalin adducts of Angiotensin I [2]: significant retrieval of formalin adducts
- immunostaining of GFAP after antigen retrieval [5, 9]: enhanced immunostaining

Compound: CC1(C)CC(=O)CC(=O)C1 [dimedone, 5,5-dimethyl-1,3-cylohexanedione]
- immunostaining of Collagen IV after antigen retrieval [4, 9]: enhanced immunostaining

Compound: O=C(O)/C=C/C(=O)O [fumaric acid, reference compound]
- antigen retrieval with visualization of the blood vessels [7]: significant reduction in activity

Compound: O=C1NCCN1 [imidazolidone]
- amount of Angiotensin I with 2 methylene units (m/z 1320) [2]: significantly reduce
- content of unmodified Angiotensin I (m/z 1296) [2]: higher content of unmodified Angiotensin I

Compound: COc1ccc(N)cc1 [p-Anisidine]
- Result (immunoreactivity, Collagen IV staining) [1, 10]: ++
- recovery of RNA from formalin-fixed paraffin-embedded tissue samples [3]: enhanced recovery of RNA
- immunostaining of Collagen IV after antigen retrieval [4]: enhanced immunostaining

Compound: Nc1ccc(N)cc1 [p-Phenylenediamine]
- Result (immunoreactivity, Collagen IV staining) [1, 10]: +
- immunostaining of Collagen IV after antigen retrieval [4]: enhanced immunostaining

Compound: Cc1ncc(CO)c(CN)c1O [pyridoxamine]
- immunostaining of Collagen IV after antigen retrieval [4, 9]: enhanced immunostaining

Compound: O=S([O-])O.[Na+] [sodium bisulfite]
- immunostaining of GFAP after antigen retrieval [5]: enhanced immunostaining

Compound: O=S([O-])S(=O)(=O)[O-].[Na+].[Na+] [sodium metabisulfite]
- immunostaining of GFAP after antigen retrieval [5, 9]: enhanced immunostaining

Compound: O=C1CCC(=O)O1 [succinic anhydride, reference compound]
- antigen retrieval with visualization of the blood vessels [7]: no vasculature is visible

Compound: O=C1CCC(=O)N1 [succinimide]
- immunostaining of Collagen IV after antigen retrieval [4, 9]: enhanced immunostaining

Compound: O=C(OC[C@H]1O[C@@H](OC(=O)c2cc(O)c(O)c(OC(=O)c3cc(O)c(O)c(O)c3)c2)[C@H](OC(=O)c2cc(O)c(O)c(OC(=O)c3cc(O)c(O)c(O)c3)c2)[C@@H](OC(=O)c2cc(O)c(O)c(OC(=O)c3cc(O)c(O)c(O)c3)c2)[C@@H]1OC(=O)c1cc(O)c(O)c(OC(=O)c2cc(O)c(O)c(O)c2)c1)c1cc(O)c(O)c(OC(=O)c2cc(O)c(O)c(O)c2)c1 [tannic acid]
- immunostaining of Collagen IV after antigen retrieval [4, 9]: enhanced immunostaining
